Source: PubChem BioAssay AID248 (DTP/NCI, 2004)
Values joined by “and” are separate entries in the source; they are usually repeats but may differ in a detail not shown here. Identical values can stand only once. Toxic doses and inconclusive results are not listed. Rule as the data show it: active = T/C of 150% or more; inactive = T/C below 125%.

System: L1210 leukemia ip in BDF1 mice, survival T/C
Experiment: NCI In Vivo Anticancer Drug Screen. Data for tumor model L1210 Leukemia (intraperitoneal) in B6D2F1 (BDF1) mice
Settings: endpoint: mean survival time, higher = longer survival
Outline: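 Value reflects the ratio of survival in compound-treated mice to survival in vehicle-treated controls, with both groups carrying the same transplanted tumor.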

[1] = dose: 100.0 mg/kg/injection, schedule: Q01DX001 (ip), vehicle: other
[2] = dose: 100.0 mg/kg/injection, schedule: Q01DX001 (ip), vehicle: saline
[3] = dose: 200.0 mg/kg/injection, schedule: Q01DX001 (ip), vehicle: saline
[4] = dose: 400.0 mg/kg/injection, schedule: Q01DX001 (ip), vehicle: saline
[5] = dose: 200.0 mg/kg/injection, schedule: Q01DX001 (ip), vehicle: other
[6] = dose: 100.0 mg/kg/injection, schedule: Q01DX009 (ip), vehicle: saline with Tween-80
[7] = dose: 100.0 mg/kg/injection, schedule: Q04DX003 (ip), vehicle: saline
[8] = dose: 200.0 mg/kg/injection, schedule: Q04DX003 (ip), vehicle: saline
[9] = dose: 50.0 mg/kg/injection, schedule: Q01DX001 (ip), vehicle: saline
[10] = dose: 100.0 mg/kg/injection, schedule: Q01DX009 (ip), vehicle: Klucel (hydroxypropylcellulose) (HPC)
[11] = dose: 100.0 mg/kg/injection, schedule: Q04DX003 (ip), vehicle: Klucel (hydroxypropylcellulose) (HPC)
[12] = dose: 200.0 mg/kg/injection, schedule: Q01DX009 (ip), vehicle: Klucel (hydroxypropylcellulose) (HPC)
[13] = dose: 200.0 mg/kg/injection, schedule: Q04DX003 (ip), vehicle: Klucel (hydroxypropylcellulose) (HPC)
[14] = dose: 400.0 mg/kg/injection, schedule: Q01DX009 (ip), vehicle: Klucel (hydroxypropylcellulose) (HPC)
[15] = dose: 400.0 mg/kg/injection, schedule: Q04DX003 (ip), vehicle: Klucel (hydroxypropylcellulose) (HPC)

Measured: T/C

Cc1ccnc(NS(=O)(=O)c2ccc(N=[N+]=[N-])cc2)n1
inactive: dose: 100.0 mg/kg/injection, schedule: Q01DX009 (ip), vehicle: carboxymethylcellulose (CMC) 92 % of control and 91 % of control | dose: 100.0 mg/kg/injection, schedule: Q04DX002 (ip), vehicle: carboxymethylcellulose (CMC) 98 % of control | dose: 200.0 mg/kg/injection, schedule: Q01DX009 (ip), vehicle: carboxymethylcellulose (CMC) 95 % of control | dose: 200.0 mg/kg/injection, schedule: Q04DX002 (ip), vehicle: carboxymethylcellulose (CMC) 93 % of control and 98 % of control | dose: 400.0 mg/kg/injection, schedule: Q01DX009 (ip), vehicle: carboxymethylcellulose (CMC) 97 % of control and 102 % of control | dose: 400.0 mg/kg/injection, schedule: Q04DX002 (ip), vehicle: carboxymethylcellulose (CMC) 101 % of control and 105 % of control

NCCC(c1ccccc1)c1ccccc1
inactive: dose: 75.0 mg/kg/injection, schedule: Q01DX001 (ip), vehicle: carboxymethylcellulose (CMC) 104 % of control

CC/C(=N/OC(=O)NC)c1ccccc1
inactive: dose: 44.0 mg/kg/injection, schedule: Q01DX001 (ip), vehicle: other 94 % of control and 106 % of control | dose: 67.0 mg/kg/injection, schedule: Q01DX001 (ip), vehicle: other 93 % of control and 110 % of control | [1] 102 % of control and 110 % of control | dose: 150.0 mg/kg/injection, schedule: Q01DX001 (ip), vehicle: other 96 % of control and 108 % of control

CC(=O)Nc1cc(Cl)ccc1SC1OC(COC(C)=O)C(OC(C)=O)C(OC(C)=O)C1OC(C)=O (configuration not stated)
inactive: [2] 93 % of control | [3] 95 % of control | [4] 87 % of control

Oc1c(Cl)cc(Cl)cc1/C=N/Nc1nnc(N/N=C/c2cc(Cl)cc(Cl)c2O)c2ccccc12
inactive: dose: 50.0 mg/kg/injection, schedule: Q01DX001 (ip), vehicle: other 111 % of control | [1] 101 % of control | [5] 102 % of control | dose: 400.0 mg/kg/injection, schedule: Q01DX001 (ip), vehicle: other 102 % of control

OC(CCl)COc1ccccc1 (configuration not stated)
inactive: dose: 100.0 mg/kg/injection, schedule: Q01DX009 (sc), vehicle: olive oil, sesame oil, peanut oil 91 % of control | dose: 100.0 mg/kg/injection, schedule: Q04DX002 (sc), vehicle: olive oil, sesame oil, peanut oil 101 % of control | dose: 200.0 mg/kg/injection, schedule: Q01DX009 (sc), vehicle: olive oil, sesame oil, peanut oil 105 % of control | dose: 200.0 mg/kg/injection, schedule: Q04DX002 (sc), vehicle: olive oil, sesame oil, peanut oil 104 % of control | dose: 400.0 mg/kg/injection, schedule: Q01DX009 (sc), vehicle: olive oil, sesame oil, peanut oil 94 % of control | dose: 400.0 mg/kg/injection, schedule: Q04DX002 (sc), vehicle: olive oil, sesame oil, peanut oil 96 % of control

C[C@]12CC[C@H]3[C@@H](CCC4=CC(=O)CC[C@@]43C(=O)F)[C@@H]1CC[C@@H]2O
inactive: dose: 100.0 mg/kg/injection, schedule: Q01DX001 (sc), vehicle: steriod suspending solution 97 % of control | dose: 200.0 mg/kg/injection, schedule: Q01DX001 (sc), vehicle: steriod suspending solution 100 % of control | dose: 400.0 mg/kg/injection, schedule: Q01DX001 (sc), vehicle: steriod suspending solution 97 % of control

CCN(c1ccccc1)S(=O)(=O)C(C)S(=O)(=O)N(CC)c1ccccc1
inactive: dose: 100.0 mg/kg/injection, schedule: Q01DX001 (ip), vehicle: saline with Tween-80 97 % of control | dose: 200.0 mg/kg/injection, schedule: Q01DX001 (ip), vehicle: saline with Tween-80 94 % of control | dose: 400.0 mg/kg/injection, schedule: Q01DX001 (ip), vehicle: saline with Tween-80 103 % of control

CC(C)(O)c1cnnn1CCC[CH2][Pb]([c]1ccccc1)([c]1ccccc1)[c]1ccccc1
inactive: dose: 50.0 mg/kg/injection, schedule: Q01DX001 (ip), vehicle: carboxymethylcellulose (CMC) 102 % of control | dose: 100.0 mg/kg/injection, schedule: Q01DX001 (ip), vehicle: carboxymethylcellulose (CMC) 105 % of control | dose: 200.0 mg/kg/injection, schedule: Q01DX001 (ip), vehicle: carboxymethylcellulose (CMC) 102 % of control | dose: 400.0 mg/kg/injection, schedule: Q01DX001 (ip), vehicle: carboxymethylcellulose (CMC) 96 % of control

C/C(Cc1ccccc1)=N\O
inactive: dose: 59.0 mg/kg/injection, schedule: Q01DX009 (ip), vehicle: saline with Tween-80 107 % of control | [6] 104 % of control | dose: 118.0 mg/kg/injection, schedule: Q01DX009 (ip), vehicle: saline with Tween-80 109 % of control | dose: 236.0 mg/kg/injection, schedule: Q01DX009 (ip), vehicle: saline with Tween-80 103 % of control | dose: 400.0 mg/kg/injection, schedule: Q01DX009 (ip), vehicle: saline with Tween-80 97 % of control

CC(CC#N)NCC[P+](c1ccccc1)(c1ccccc1)c1ccccc1 (configuration not stated)
inactive: [7] 95 % of control | [8] 96 % of control

COC(=O)N/N=C/C=C/c1ccccc1
inactive: dose: 25.0 mg/kg/injection, schedule: Q01DX009 (ip), vehicle: saline with Tween-80 101 % of control | dose: 50.0 mg/kg/injection, schedule: Q01DX009 (ip), vehicle: saline with Tween-80 105 % of control | [6] 97 % of control

CCCCCCCCCCCCCCCC(=O)Nc1c(C)cccc1Cl
inactive: dose: 100.0 mg/kg/injection, schedule: Q04DX002 (ip), vehicle: saline with Tween-80 96 % of control | dose: 200.0 mg/kg/injection, schedule: Q04DX002 (ip), vehicle: saline with Tween-80 88 % of control | dose: 400.0 mg/kg/injection, schedule: Q04DX002 (ip), vehicle: saline with Tween-80 93 % of control

C[n+]1cccc(CNC(=O)COc2ccc(Cl)c(Cl)c2)c1
inactive: dose: 25.0 mg/kg/injection, schedule: Q01DX001 (ip), vehicle: saline 106 % of control | [9] 103 % of control | [2] 97 % of control and 109 % of control

CCOC(=O)CC(=O)O
inactive: [2] 91 % of control | [3] 97 % of control | [4] 91 % of control

CC(=O)CC(=O)NC1CCCC1
inactive: [10] 103 % of control | [11] 100 % of control | [12] 100 % of control | [13] 100 % of control | [14] 100 % of control | [15] 100 % of control

CCCC[N+](CCCC)=c1cc(-c2ccc(Cl)cc2)ss1
inactive: dose: 100.0 mg/kg/injection, schedule: Q04DX003 (ip), vehicle: water 95 % of control | dose: 200.0 mg/kg/injection, schedule: Q04DX003 (ip), vehicle: water 96 % of control

CCCc1ccc2c(c1)CCCC2
inactive: [10] 94 % of control | [11] 94 % of control | [12] 90 % of control | [13] 93 % of control | [14] 97 % of control | [15] 94 % of control

COc1cc(CC2(C#N)c3ccccc3C=CN2C(=O)c2ccccc2)c(Oc2cc(CC3(C#N)c4ccccc4C=CN3C(=O)c3ccccc3)ccc2OC)cc1OC (configuration not stated)
inactive: [11] 98 % of control | [13] 93 % of control | [15] 92 % of control

NC(=O)c1cc(O)c(Br)c(O)c1
inactive: dose: 100.0 mg/kg/injection, schedule: Q01DX009 (ip), vehicle: other 86 % of control | [7] 98 % of control | dose: 200.0 mg/kg/injection, schedule: Q01DX009 (ip), vehicle: other 100 % of control | [8] 109 % of control | dose: 400.0 mg/kg/injection, schedule: Q01DX009 (ip), vehicle: other 93 % of control | dose: 400.0 mg/kg/injection, schedule: Q04DX003 (ip), vehicle: saline 98 % of control

Cc1nn(C2CC(OC(=O)c3ccc([N+](=O)[O-])cc3)C(OC(=O)c3ccc([N+](=O)[O-])cc3)C(COC(=O)c3ccc([N+](=O)[O-])cc3)O2)c(=O)[nH]c1=O (configuration not stated)
inactive: dose: 100.0 mg/kg/injection, schedule: Q01DX005 (ip), vehicle: saline 100 % of control | dose: 200.0 mg/kg/injection, schedule: Q01DX005 (ip), vehicle: saline 96 % of control

Cn1c(=O)c(-c2ccccc2)[n+]([O-])c2ccccc21
inactive: [9] 104 % of control | [2] 101 % of control | [3] 101 % of control | [4] 101 % of control

COc1cc(CC2COC(=O)C2Cc2ccc(OC3OC(CO)C(O)C(O)C3O)c(OC)c2)ccc1O (configuration not stated)
inactive: dose: 25.0 mg/kg/injection, schedule: Q04DX002 (ip), vehicle: saline 111 % of control | dose: 50.0 mg/kg/injection, schedule: Q04DX002 (ip), vehicle: saline 104 % of control | dose: 100.0 mg/kg/injection, schedule: Q04DX002 (ip), vehicle: saline 107 % of control

CCOC(=O)Sc1ccccc1
inactive: [1] 102 % of control | [5] 94 % of control
